By IC50 is commonly meant the concentration that gives 50% inhibition.

SMILES strings stand for the structures.

The values that follow come from patent publication US20110218199A1, “PYRIDONEAMIDE DERIVATIVES, THEIR MANUFACTURE AND USE AS PHARMACEUTICAL AGENTS” (priority 2007, published 2011).

T1 sequence (Q05397 422-680 limits assumed, species assumed): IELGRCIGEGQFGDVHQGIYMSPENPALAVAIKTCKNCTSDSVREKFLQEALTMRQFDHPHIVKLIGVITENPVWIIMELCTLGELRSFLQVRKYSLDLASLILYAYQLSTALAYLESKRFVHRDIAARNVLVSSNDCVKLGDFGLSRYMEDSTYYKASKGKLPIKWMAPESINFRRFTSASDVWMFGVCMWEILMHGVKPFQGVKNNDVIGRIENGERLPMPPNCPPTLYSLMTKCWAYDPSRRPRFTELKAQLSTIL

The first assay has as its target T1, FAK Kinase Domain (KD) (Homo sapiens, UniProt Q05397).
T1 construct: FAK Kinase Domain (KD) from baculo Sf9 was used; made in house; host or cells: baculovirus / Sf9 insect cells
Put plainly: IC50 determination for inhibitors of FAK (ELISA-type assay). The format is biochemical. Particulars: FAK kinase domain from baculo Sf9, biotinylated FAK-397 peptide, 10 μM ATP, 30 min, read-out: IC50 FAK inhibition. (In general: ELISA stands for enzyme-linked immunosorbent assay.)
`O=C(Nc1ccc(N2CCOCC2)c(F)c1)c1c(NCc2ccccn2)cc[nH]c1=O` [Example 1, 2-Oxo-4-[(pyridin-2-ylmethyl)-amino]-1,2-dihydro-pyridine-3-carboxylic acid(3-fluoro-4-morpholin-4-yl-phenyl)-amide]: the IC50 is 143 nM.
The same measure, in the same setting: with `O=C(Nc1cccc(N2CCCC2)c1)c1c(NC[C@@H](O)c2ccccc2)cc[nH]c1=O` [Example 2d, 4-((S)-2-Hydroxy-2-phenyl-ethylamino)-2-oxo-1,2-dihydro-pyridine-3-carboxylic acid (3-pyrrolidin-1-yl-phenyl)-amide] the figure was 93 nM; with `COc1ccc(NC(=O)c2c(NCCc3cccnc3)cc[nH]c2=O)cc1N1CCN(C)CC1` [Example 6aa, 2-Oxo-4-(2-pyridin-3-yl-ethylamino)-1,2-dihydro-pyridine-3-carboxylic acid [4-methoxy-3-(4-methyl-piperazin-1-yl)-phenyl]-amide], 216 nM.

Another assay deals with HCT 116 cells. Put plainly: CellTiter-Glo assay in HCT 116 cells (antiproliferative activity). The format is cell-based. The settings on record: Homo sapiens, HCT-116, 120 h, CellTiter-Glo cell viability, HCT 116 human colon carcinoma, 5 days (120 h) incubation. An excerpt:
Antiproliferative Activity:
CellTiter-Glo™ Assay in HCT 116 Cells:
The CellTiter-Glo™ Luminescent Cell Viability Assay (Promega) is a homogeneous method of determining the number of viable cells in culture based on quantitation of the ATP present, which signals the presence of metabolically active cells.
HCT 116 cells (human colon carcinoma, ATCC-No. CCl-247) were cultivated in RPMI 1640 medium with GlutaMAX• I (Invitrogen, Cat-No. 61870-010), 5% Fetal Calf Serum (FCS, Sigma Cat-No. F4135 (FBS)); 100 Units/ml penicillin/100 μg/ml streptomycin (=Pen/Strep from Invitrogen Cat. No. 15140). For the assay the cells were seeded in 384 well plates, 1000 cells per well, in the same medium. The next day the test compounds were added in various concentrations ranging from 30 μM to 0.0015 μM (10 concentrations, 1:3 diluted). After 5 days the CellTiter-Glo™ assay was done according to the instructions of the manufacturer (CellTiter-Glo™ Luminescent Cell Viability Assay, from Promega). In brief: the cell-plate was equilibrated to room temperature for approximately 30 minutes and than the CellTiter-Glo™ reagent was added. The contents were carefully mixed for 15 minutes to induce cell lysis. After 45 minutes the luminescent signal was measured in Victor 2, (scanning multiwell spectrophotometer, Wallac).
1st. Day: • Medium: RPMI 1640 with GlutaMAX™ I (Invitrogen, Cat-Nr. 61870), 5% FCS (Sigma Cat.-No. F4135), Pen/Strep (Invitrogen, Cat No. 15140). • HCT116 (ATCC-No. CC1-247): 1000 cells in 60 μl per well of 384 well plate (Greiner 781098, μClear-plate white) • After seeding incubate plates 24 h at 37° C., 5% CO2
2nd. Day: Induction (Treatment with Compounds, 10 Concentrations):
In order to achieve a final concentration of 30 μM as highest concentration 3.5 μl of 10 mM compound stock solution were added directly to 163 μl media. Then step e) of the dilution procedure described below, was followed.
In order to achieve the second highest to the lowest concentrations, a serial dilution with dilution steps of 1:3 was followed according to the procedure (a-e) as described here below: • a) for the second highest concentration add 10 μl of 10 mM stock solution of compound to 20 μl dimethylsulfoxide (DMSO) • b) dilute 8×1:3 (always 10 μl to 20 μl DMSO) in this DMSO dilution row (results in 9 wells with concentrations from 3333.3 μM to 0.51 μM) • c) dilute each concentration 1: 47.6 (3.5 μl compound dilution to 163 μl media) • d) add 10 μl of every concentration to 60 μl media in the cell plate resulting in final concentration of DMSO: 0.3% in every well and resulting in 10 final concentration of compounds ranging from 30 μM to 0.0015 μM. • Each compound is tested in triplicate. • Incubate 120 h (5 days) at 37° C., 5% CO2 […]
Add 30 μl CellTiter-Glo™ Reagent (prepared from CellTiter-Glo™ Buffer and CellTiter-Glo™ Substrate (lyophilized) purchased from Promega) per well, shake 15 minutes at room temperature incubate further 45 minutes at room temperature without shaking
Victor 2 scanning multiwell spectrophotometer (Wallac), Luminescence mode (0.5 sec/read, 477 nm) Determine IC50 using a non-linear curve fit (XLfit software (ID Business Solution Ltd., Guilford, Surrey, UK))
Consider `O=C(Nc1ccc(N2CCOCC2)c(F)c1)c1c(NCc2ccccn2)cc[nH]c1=O` [Example 1, 2-Oxo-4-[(pyridin-2-ylmethyl)-amino]-1,2-dihydro-pyridine-3-carboxylic acid(3-fluoro-4-morpholin-4-yl-phenyl)-amide], for which the IC50 was 7460 nM.
With `CN1CCN(c2ccc(NC(=O)c3c(NCCc4ccccc4)cc[nH]c3=O)cc2)CC1` [Example 6ad, 2-Oxo-4-phenethylamino-1,2-dihydro-pyridine-3-carboxylic acid [4-(4-methyl-piperazin-1-yl)-phenyl]-amide], the IC50 was in the range of 500 to 15000 nM.
Turning to `CC(CNc1cc[nH]c(=O)c1C(=O)Nc1ccc(N2CCN(C)CC2)cc1)c1ccccc1` (centres unmarked) [Example 6ae, 2-Oxo-4-(2-phenyl-propylamino)-1,2-dihydro-pyridine-3-carboxylic acid [4-(4-methyl-piperazin-1-yl)-phenyl]-amide], the IC50 lay in the range of 500 to 15000 nM.
The same measure, in the same setting: with `CC(CNc1cc[nH]c(=O)c1C(=O)Nc1cccc(N2CCOCC2)c1)c1ccccc1` (centres unmarked) [Example 6g, 2-Oxo-4-(2-phenyl-propylamino)-1,2-dihydro-pyridine-3-carboxylic acid (3-morpholin-4-yl-phenyl)-amide] the figure was 500 to 15000 nM.
`COc1ccc(NC(=O)c2c(NCCc3ccccc3)cc[nH]c2=O)cc1N1CCN(C)CC1` [Example 6i, 2-Oxo-4-phenethylamino-1,2-dihydro-pyridine-3-carboxylic acid [4-methoxy-3-(4-methyl-piperazin-1-yl)-phenyl]-amide] had a half-maximal inhibitory concentration (IC50) of 500 to 15000 nM.
On the same count and under the same terms, under `COc1ccc(NC(=O)c2c(NCC(C)c3ccccc3)cc[nH]c2=O)cc1N1CCN(C)CC1` (centres unmarked) [Example 6j, 2-Oxo-4-(2-phenyl-propylamino)-1,2-dihydro-pyridine-3-carboxylic acid [4-methoxy-3-(4-methyl-piperazin-1-yl)-phenyl]-amide] stands 500 to 15000 nM; under `COc1ccc(NC(=O)c2c(NC3CCCCC3)cc[nH]c2=O)cc1N1CCN(C)CC1` [Example 6m, 4-Cyclohexylamino-2-oxo-1,2-dihydro-pyridine-3-carboxylic acid [4-methoxy-3-(4-methyl-piperazin-1-yl)-phenyl]-amide], 500 to 15000 nM.
Take `COc1ccc(NC(=O)c2c(NCCc3cccc(Cl)c3)cc[nH]c2=O)cc1N1CCN(C)CC1` [Example 6o, 4-[2-(3-Chloro-phenyl)-ethylamino]-2-oxo-1,2-dihydro-pyridine-3-carboxylic acid [4-methoxy-3-(4-methyl-piperazin-1-yl)-phenyl]-amide]: the IC50 lay within 500 to 15000 nM.
Regarding `O=C(Nc1ccc(N2CCOCC2)cc1)c1c(NCc2ccccn2)cc[nH]c1=O` [Example 6r, 2-Oxo-4-[(pyridin-2-ylmethyl)-amino]-1,2-dihydro-pyridine-3-carboxylic acid (4-morpholin-4-yl-phenyl)-amide], the IC50 is 500 to 15000 nM.
As to `CSc1cccc(NC(=O)c2c(NCc3ccccn3)cc[nH]c2=O)c1` [Example 6s, 2-Oxo-4-[(pyridin-2-ylmethyl)-amino]-1,2-dihydro-pyridine-3-carboxylic acid (3-methylsulfanyl-phenyl)-amide], the 50% inhibitory concentration (IC50) was 500 to 15000 nM.
The same measure, in the same setting: with `O=C(Nc1cccc(CN2CCCCC2)c1)c1c(NCCc2ccccc2)cc[nH]c1=O` [Example 6t, 2-Oxo-4-phenethylamino-1,2-dihydro-pyridine-3-carboxylic acid (3-piperidin-1-ylmethyl-phenyl)-amide] the figure was 500 to 15000 nM; with `CC(CNc1cc[nH]c(=O)c1C(=O)Nc1cccc(CN2CCCCC2)c1)c1ccccc1` (centres unmarked) [Example 6u, 2-Oxo-4-(2-phenyl-propylamino)-1,2-dihydro-pyridine-3-carboxylic acid (3-piperidin-1-ylmethyl-phenyl)-amide], 500 to 15000 nM.
Molecule `CC(CNc1cc[nH]c(=O)c1C(=O)Nc1cccc(CN2CCCC2)c1)c1ccccc1` (centres unmarked) [Example 6v, 2-Oxo-4-(2-phenyl-propylamino)-1,2-dihydro-pyridine-3-carboxylic acid (3-pyrrolidin-1-ylmethyl-phenyl)-amide] had an IC50 of 500 to 15000 nM.
`O=C(Nc1cccc(CN2CCCC2)c1)c1c(NCCc2ccccc2)cc[nH]c1=O` [Example 6w, 2-Oxo-4-phenethylamino-1,2-dihydro-pyridine-3-carboxylic acid (3-pyrrolidin-1-ylmethyl-phenyl)-amide] displayed an IC50 of 500 to 15000 nM.
